We go through nine molecules from patent publication US11088380B2, “Electrolyte solution for redox flow battery and redox flow battery comprising same” (Seoul National University R&DB Foundation, priority 2013, dated 2021).

≈ marks a conversion by molar mass, not a printed value. Some results are limits rather than exact numbers.

The first data set in a line: physchem.
Settings: not given
Here is the method: Menadione purchased from Sigma Aldrich was dissolved in propylene carbonate solution comprising tetrafluoroborate tetraethylammonium and the maximum amount of Menadione that can be dissolved was checked.
1,4-Naphthoquinone purchased from Sigma Aldrich was dissolved in propylene carbonate solution comprising tetrafluoroborate tetraethylammonium and the maximum amount of 1,4-Naphthoquinone that can be dissolved was checked.
N,N,N′N′-tetramethyl-p-phenylenediamine purchased from Alfa aesar was dissolved in propylene carbonate solution comprising tetrafluoroborate tetraethylammonium and the maximum amount of N,N,N′N′-tetramethyl-p-phenylenediamine that can be dissolved was checked.
Tetrathiafulvalene purchased from Sigma Aldrich was dissolved in propylene carbonate solution comprising tetrafluoroborate tetraethylammonium and the maximum amount of tetrathiafulvalene that can be dissolved was checked.
N,N-dimethyl-p-phenylenediamine purchased from Sigma Aldrich was dissolved in propylene carbonate solution comprising tetrafluoroborate tetraethylammonium and the maximum amount of N,N-dimethyl-p-phenylenediamine that can be dissolved was checked.
Triphenylamine purchased from Sigma Aldrich was dissolved in propylene carbonate solution comprising tetrafluoroborate tetraethylammonium and the maximum amount of triphenylamine that can be dissolved was checked.
4-Hydroxydiphenylamine purchased from Sigma Aldrich was dissolved in propylene carbonate solution comprising tetrafluoroborate tetraethylammonium and the maximum amount of 4-hydroxydiphenylamine that can be dissolved was checked.
4-Amino-diphenylamine purchased from Sigma Aldrich was dissolved in propylene carbonate solution comprising tetrafluoroborate tetraethylammonium and the maximum amount of 4-amino-diphenylamine that can be dissolved was checked.
Thianthrene purchased from Aldrich was dissolved in propylene carbonate solution comprising tetrafluoroborate tetraethylammonium and the maximum amount of thianthrene that can be dissolved was checked.
One may read the solubility as the dissolved amount per volume that the medium holds. For the molecule `C1=CSC(=C2SC=CS2)S1` [Example 5, Tetrathiafulvalene], the solubility came to 600 mM (≈ 123 mg/mL).

`Nc1ccc(Nc2ccccc2)cc1` [Example 9, 4-amino-diphenylamine] returned a solubility of 4000 mM (≈ 737 mg/mL).

Staying with this data set, now noted: maximum amount dissolved in propylene carbonate solution comprising tetrafluoroborate tetraethylammonium.
Consider `CN(C)c1ccc(N(C)C)cc1` [Example 4, N,N,N′N′-tetramethyl-p-phenylenediamine], for which the solubility was determined as 2000 mM (≈ 329 mg/mL).

`Oc1ccc(Nc2ccccc2)cc1` [Example 8, 4-hydroxydiphenylamine] gave a solubility of 4000 mM (≈ 741 mg/mL).

The same data set, now with this note: organic solvent or mixture, thermodynamic from solid.
`c1ccc2c(c1)Sc1ccccc1S2` [Comparative example 2, Thianthrene, reference compound]: the solubility came to 100 mM (≈ 21.6 mg/mL).

For `CC1=CC(=O)c2ccccc2C1=O` [Example 2, menadione], the solubility stood at 300 mM (≈ 51.7 mg/mL).

Turning to `O=C1C=CC(=O)c2ccccc21` [Example 3, 1,4-Naphthoquinone], the solubility came to 500 mM (≈ 79.1 mg/mL).

As for `CN(C)c1ccc(N)cc1` [Example 6, N,N-dimethyl-p-phenylenediamine], the solubility amounted to 2000 mM (≈ 272 mg/mL).

Regarding `c1ccc(N(c2ccccc2)c2ccccc2)cc1` [Example 7, Triphenylamine], the solubility is less than 100 mM.
